# Measured values reported in US20250170090A1, “METHOD FOR PREVENTING OR TREATING DISEASE OR DISORDER ASSOCIATED WITH ANTINEOPLASTIC AGENT” (ONQUALITY PHARMACEUTICALS CHINA LTD., priority 2022, published 2025).
# Where two headings read alike, the source gives them in different places.
# Tests used:
# [1] = test system: hand-foot syndrome induced by anti-tumor agents; test: Prevention of hand-foot syndrome induced by anti-tumor agents in rats, NO-NSAID ointment on hind paws (Table 2-2); format: in vivo, SD rats; settings: Rattus norvegicus, topical, read-out: Control rate; for responders at 1 %: ointment 1% wt; for responders at 5 %: ointment 5% wt; for responders at 3 %: ointment 3% wt
# Description: A rat animal model was constructed, and the anti-tumor agents shown in Table 2-2 were respectively administered to 8-week-old female SD rats by daily oral gavage. […] Therefore, rats serve as an excellent animal model for simulating side effects (such as hand-foot syndrome) caused by anti-tumor agents.
# After the rats (about 200 g) were fed and adapted for one week, they were divided into a NO-NSAID group and a control group, with 10 rats in each group, and a gavage administration test was conducted. The various anti-tumor agents were dissolve in a mixed solution of Cremophor EL:ethanol=1:1. The anti-tumor agent solution were diluted with PBS to the required concentration (about 3 times with PBS solution) before gavage administration. After gavage, an ointment containing NO-NSAID was applied to the hind paws of the rats, while the control group was applied with a blank ointment. After application, the rats were placed in a fixed cylinder for 4 hours. After 4 hours, the rats were released and the residual ointment was wiped off with clean water, then the rats were returned to the cage. The gavage frequency of inhibitors was shown in Table 2-2, and NO-NSAID was only applied once a day. The gavage and application operations were repeated daily until the end of the experiment.
# Table 2-2 lists the animal experimental combinations of various anti-tumor agents and NO-NSAID ointments, as well as the corresponding experimental results (wherein the value in the control rate column=the hand-foot syndrome incidence rate in the blank group−the hand-foot syndrome incidence rate in the treatment group).
# [2] = test system: HUVEC cells; test: CCK-8 cell viability: alleviation of proliferative toxicity of anti-tumor agents on HUVEC cells (Tables 7-1, 7-2); format: cell-based; settings: for activation at 100 µM: Homo sapiens, 24 h, percentage increase in viable cells vs anti-tumor agent alone, read-out: Response rate % (average)
# Description: The cultured HUVEC cells were digested the suspended, counted, and seed into a 96-well plate with 5,000-10,000 cells per well. The wells are divided into the following groups: blank control group, anti-tumor agent group, anti-tumor agent+NO-NSAID group, anti-tumor agent solvent group, NO-NSAID control group. Wherein each well of each group contained a basic medium, and the final liquid volume contained in each well was about 100 μL. The grouping situation was as follows: • 1) Blank control group: no solution was added except normally replacing the medium; • 2) Anti-tumor agent group: added the anti-tumor agent solution (the final concentration was shown in Table 7-1 and Table 7-2, the solvent of the anti-tumor agent solution was DMSO); • 3) Anti-tumor agent+NO-NSAID group: added the anti-tumor agent solution and the NO-NSAID solution (the final concentrations of anti-tumor agent and NO-NSAID were shown in Table 7-1 and Table 7-2, and according to the solubility of NO-NSAID, the solvent of NO-NSAID solution was selected as ethanol or sterile water, and minor volume differences in each group were adjusted by added the corresponding solvent); • 4) Anti-tumor agent solvent group: an equal volume of DMSO as contained in the corresponding anti-tumor agent solution in Group 2) was added; • 5) NO-NSAID control group: the same volume and type of solvent (for example, ethanol or sterile water) corresponding to the NO-NSAID contained in group 3) was added.
# The anti-tumor agent solvent group was not involved in data processing and was only used as a reference for evaluating experimental system error. The NO-NSAID solvent control group was used for data correction to eliminate the influence of the solvent on the results.
# After culturing for 24-48 hours, the Cell Counting Kit-8 (CCK-8) detection kit (C0037, Shanghai Beyotime Biotechnology Co., Ltd., Beyotime Biotechnology) was used to determine the cell viability. This allows for the calculation of the proliferative toxicity of anti-tumor agent on cell and the mitigating effect of NO-NSAID on proliferative toxicity. The results were statistically analyzed and plotted using GraphPad Prism 6.0 software and t test.
# [3] = 120 h, Sorafenib 80 mg/kg once a day, Days 5
# [4] = 432 h, Cabozantinib 50 mg/kg once a day, Days 18
# [5] = 432 h, Lenvatinib 100 mg/kg twice a day, Days 18
# [6] = 432 h, Nintedanib 110 mg/kg once a day, Days 18
# [7] = 432 h, Regorafenib 90 mg/kg once a day, Days 18
# [8] = Afatinib (10 μM), NO-NSAID 100 μM
# [9] = Cabozantinib (5 μM), NO-NSAID 100 μM
# [10] = Dabrafenib (10 μM), NO-NSAID 100 μM
structure (smiles),measurement,setting,value
CC(=O)Oc1ccccc1C(=O)Oc1cccc(CO[N+](=O)[O-])c1 [Compound A2],responders at 1 %,[1]; [3],50%
same,responders at 2 %,"[1]; 120 h, Sorafenib 80 mg/kg once a day, ointment 2% wt, Days 5",50%
same,responders at 5 %,[1]; [3],66.7%
same,responders at 10 %,"[1]; 120 h, Sorafenib 80 mg/kg once a day, ointment 10% wt, Days 5",80%
same,responders at 3 %,"[1]; 360 h, Apatinib 105 mg/kg once a day, Days 15",50%
same,responders at 3 %,"[1]; 360 h, Encorafenib 80 mg/kg once a day, Days 15",42.9%
same,responders at 3 %,"[1]; 360 h, Lapatinib 120 mg/kg twice a day, Days 15",33.3%
same,responders at 3 %,"[1]; 360 h, Sunitinib 120 mg/kg once a day, Days 15",42.9%
same,responders at 3 %,"[1]; 384 h, Fruquintinib 40 mg/kg once a day, Days 16",71.4%
same,responders at 3 %,"[1]; 432 h, Anlotinib 20 mg/kg once a day, Days 18",66.7%
same,responders at 3 %,"[1]; 432 h, Axitinib 50 mg/kg once a day, Days 18",40%
same,responders at 1 %,[1]; [4],28.6%
same,responders at 2.5 %,"[1]; 432 h, Cabozantinib 50 mg/kg once a day, ointment 2.50% wt, Days 18",42.9%
same,responders at 5 %,[1]; [4],66.7%
same,responders at 1 %,[1]; [5],42.9%
same,responders at 3 %,[1]; [5],42.9%
same,responders at 5 %,[1]; [5],71.4%
same,responders at 1 %,[1]; [6],33.3%
same,responders at 3 %,[1]; [6],50%
same,responders at 5 %,[1]; [6],66.7%
same,responders at 1 %,[1]; [7],57.1%
same,responders at 5 %,[1]; [7],66.7%
same,responders at 3 %,"[1]; 480 h, Erdafitinib 45 mg/kg once a day, Days 20",71.4%
same,responders at 3 %,"[1]; 480 h, Olmutinib 100 mg/kg once a day, Days 20",60%
same,NO-NSAID response rate % (average),"[2]; Afatinib (10 μM), NO-NSAID 0.1 μM",15%
same,NO-NSAID response rate % (average),"[2]; Afatinib (10 μM), NO-NSAID 1 μM",17%
same,NO-NSAID response rate % (average),[2]; [8],46%
same,NO-NSAID response rate % (average),"[2]; Afatinib (10 μM), NO-NSAID 500 μM",38%
same,NO-NSAID response rate % (average),"[2]; Cabozantinib (5 μM), NO-NSAID 0.1 μM",3%
same,NO-NSAID response rate % (average),"[2]; Cabozantinib (5 μM), NO-NSAID 1 μM",4%
same,NO-NSAID response rate % (average),[2]; [9],10%
same,NO-NSAID response rate % (average),"[2]; Cabozantinib (5 μM), NO-NSAID 500 μM",12%
same,NO-NSAID response rate % (average),"[2]; Dabrafenib (10 μM), NO-NSAID 0.1 μM",23%
same,NO-NSAID response rate % (average),"[2]; Dabrafenib (10 μM), NO-NSAID 1 μM",36%
same,NO-NSAID response rate % (average),[2]; [10],49%
same,NO-NSAID response rate % (average),"[2]; Dabrafenib (10 μM), NO-NSAID 500 μM",30%
same,NO-NSAID response rate % (average),"[2]; Everolimus (5 μM), NO-NSAID 0.1 μM",−11%
same,NO-NSAID response rate % (average),"[2]; Everolimus (5 μM), NO-NSAID 1 μM",−6%
same,NO-NSAID response rate % (average),"[2]; Everolimus (5 μM), NO-NSAID 100 μM",33%
same,NO-NSAID response rate % (average),"[2]; Everolimus (5 μM), NO-NSAID 500 μM",−9%
same,activation at 100 µM,[2]; [8],46%
same,activation at 100 µM,"[2]; Anlotinib (5 μM), NO-NSAID 100 μM",78%
same,activation at 100 µM,"[2]; Apatinib (10 μM), NO-NSAID 100 μM",56%
same,activation at 100 µM,"[2]; Axitinib (10 μM), NO-NSAID 100 μM",77%
same,activation at 100 µM,[2]; [9],10%
same,activation at 100 µM,[2]; [10],49%
same,activation at 100 µM,"[2]; Dacomitinib (5 μM), NO-NSAID 100 μM",12%
